pEC50: −log10 of the molar value.
Key:
Zika virus [1] = experiment: Antiviral activity against Zika virus infected in African green monkey Vero cells assessed as inhibition of viral RNA replication at 10 uM after 24 hrs by RT-PCR method relative to control; type: functional
Zika virus [2] = experiment: Potency index, ratio of chloroquine EC50 to test compound EC50 for Zika virus; type: functional
[3] = Cytotoxicity against African green monkey Vero cells after 72 hrs by XTT assay; type: cell-based; settings: chlorocebus sabaeus
Zika virus [4] = experiment: Antiviral activity against Zika virus infected in African green monkey Vero cells assessed as inhibition of viral RNA replication after 24 hrs by RT-PCR method; type: functional
[5] = Selectivity index, ratio of CC50 for African green monkey Vero cells to EC50 for Zika virus; type: toxicity; settings: read-out: Ratio CC50/EC50
Vero = experiment: Cytotoxicity against African green monkey Vero cells assessed as reduction in cell viability at 10 uM after 72 hrs by XTT assay relative to control; type: cell-based; settings: chlorocebus sabaeus

| pEC50 (Zika virus [4]) | SMILES | inhibition at 10 µM (Zika virus [1]) | Ratio EC50 (Zika virus [2]) | CC50 at 72 h [3] | selectivity ratio [5] | Activity (Vero) |
| --- | --- | --- | --- | --- | --- | --- |
| – | Oc1ccccc1C=NCCNc1ccnc2cc(Cl)ccc12 | 57% | – | – | – | – |
| 5.82 | O=[N+]([O-])c1ccc(C=NCCNc2ccnc3cc(Cl)ccc23)s1 | 78% | 10 | 478 µM | 318 | – |
| 5.82 | Fc1ccc(C=NCCNc2ccnc3cc(Cl)ccc23)cc1 | 75% | 10 | 534 µM | 356 | – |
| 5.80 | COc1cccc(C=NCCNc2ccnc3cc(Cl)ccc23)c1O | 74% | 10 | 487 µM | 304 | – |
| – | Clc1ccc2c(NCCN=Cc3c(Cl)cccc3Cl)ccnc2c1 | – | – | – | – | > 80% |
| 5.92 | Clc1ccc2c(NCCN=Cc3ccccc3)ccnc2c1 | 76% | 10 | 489 µM | 407 | – |
| – | COc1ccc(OC)c(C=NCCNc2ccnc3cc(Cl)ccc23)c1 | 51% | – | – | – | – |
| – | COc1cc(C=NCCNc2ccnc3cc(Cl)ccc23)cc(OC)c1OC | 41% | – | – | – | – |
| 6.10 | O=[N+]([O-])c1ccc(C=NCCNc2ccnc3cc(Cl)ccc23)o1 | 72% | 10 | 412 µM | 515 | – |
| – | COc1ccccc1C=NCCNc1ccnc2cc(Cl)ccc12 | 70% | – | – | – | – |
| – | O=[N+]([O-])c1cccc(C=NCCNc2ccnc3cc(Cl)ccc23)c1 | 59% | – | – | – | – |
| 5.47 | Clc1ccc2c(NCCN=Cc3cccnc3)ccnc2c1 | 80% | 5 | 578 µM | 170 | – |
| – | Clc1ccc2c(NCCN=Cc3ccc(Br)cc3)ccnc2c1 | 52% | – | – | – | – |
| 5.82 | O=[N+]([O-])c1ccc(C=NCCNc2ccnc3cc(Cl)ccc23)cc1 | 82% | 10 | 512 µM | 341 | – |
| – | Clc1ccc(C=NCCNc2ccnc3cc(Cl)ccc23)c(Cl)c1 | – | – | – | – | > 80% |
| 5.82 | COc1cccc(OC)c1C=NCCNc1ccnc2cc(Cl)ccc12 | 75% | 10 | 458 µM | 305 | – |
| 5.82 | Clc1ccc2c(NCCN=Cc3ccncc3)ccnc2c1 | 74% | 10 | 571 µM | 380 | – |
| – | Cc1ccc(C=NCCNc2ccnc3cc(Cl)ccc23)cc1 | 66% | – | – | – | – |
| – | Clc1ccc2c(NCCN=Cc3ccccn3)ccnc2c1 | 70% | – | – | – | – |
| – | Oc1cccc(C=NCCNc2ccnc3cc(Cl)ccc23)c1O | – | – | – | – | > 80% |
| – | NCCNc1ccnc2cc(Cl)ccc12 | 43% | – | – | – | – |
| – | CCN(CC)CCCC(C)Nc1ccnc2cc(Cl)ccc12 (stereo not drawn) [CHLOROQUINE] | 47% | – | – | – | – |

— ChEMBL document CHEMBL3997789, “N-(2-(arylmethylimino)ethyl)-7-chloroquinolin-4-amine derivatives, synthesized by thermal and ultrasonic means, are endowed with anti-Zika virus activity” (Eur J Med Chem, 2017)
